Consider 38 compounds from patent publication US10385022B2, “3-amino-pyridines as GPBAR1 agonists” (HOFFMANN-LA ROCHE INC., priority 2011, dated 2019).

For the assay, the target named is human GPBAR1 receptor (Homo sapiens (Human), UniProt Q8TDU6). The experiment in a line: functional cAMP assay in CHO-dhfr(minus) cells expressing human GPBAR1 receptors. The assay is classed as cell-based. The following applies: CHO-dhfr(minus) cells expressing human GPBAR1, 30 min at 30° C. In short, it runs like this:
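Functional cAMP responses in a human GPBAR1-transfected CHO-dhfr- clone, picked using lithocholic acid as agonist, gave the EC50 values. Parallel testing in untransfected CHO cells served as a specificity control.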

Sequence of human GPBAR1 receptor (Q8TDU6 whole entry): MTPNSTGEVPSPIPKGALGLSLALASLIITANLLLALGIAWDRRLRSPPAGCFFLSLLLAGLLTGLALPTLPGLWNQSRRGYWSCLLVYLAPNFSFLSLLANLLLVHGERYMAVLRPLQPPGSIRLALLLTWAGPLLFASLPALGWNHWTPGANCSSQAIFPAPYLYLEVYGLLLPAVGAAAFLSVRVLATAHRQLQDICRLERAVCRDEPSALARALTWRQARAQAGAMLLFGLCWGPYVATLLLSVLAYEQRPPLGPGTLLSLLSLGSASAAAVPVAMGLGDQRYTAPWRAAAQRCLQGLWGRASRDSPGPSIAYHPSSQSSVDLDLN

One may read the EC50 as the concentration at which the effect is half-maximal. The compound `COC(=O)CN(C(=O)c1cc(C(F)(F)F)cc(C(F)(F)F)c1)c1cnccc1-c1ccccc1Cl` [Example 88, {(3,5-Bis-trifluoromethyl-benzoyl)-[4-(2-chloro-phenyl)-pyridin-3-yl]-amino}-acetic acid methyl ester] displayed an EC50 of 0.066 µM. The figure for `COCCN(C(=O)c1cc(C(F)(F)F)cc(C(F)(F)F)c1)c1cnccc1-c1ccccc1Cl` [Example 89, N-[4-(2-Chloro-phenyl)-pyridin-3-yl]-N-(2-methoxy-ethyl)-3,5-bis-trifluoromethyl-benzamide] is 0.008 µM; for `Cc1ccccc1-c1ccncc1N(C)C(=O)c1ccc(C(F)(F)F)cc1` [Example 90, N-Methyl-N-(4-o-tolyl-pyridin-3-yl)-4-trifluoromethyl-benzamide] it is 2.74 µM; for `Cc1ccccc1-c1ccncc1N(C)C(=O)c1ccc(C)c(C(F)(F)F)c1` [Example 91, 4,N-Dimethyl-N-(4-o-tolyl-pyridin-3-yl)-3-trifluoromethyl-benzamide] it is 0.152 µM. With `COc1ccc(C(=O)N(C)c2cnccc2-c2ccccc2C)cc1C(F)(F)F` [Example 92, 4-Methoxy-N-methyl-N-(4-o-tolyl-pyridin-3-yl)-3-trifluoromethyl-benzamide] the figure was 0.236 µM.

Compound `CN(C(=O)c1cc(C(F)(F)F)cc(C(F)(F)F)c1)c1cnccc1-c1ccccc1CCO` [Example 93, N-{4-[2-(2-Hydroxy-ethyl)-phenyl]-pyridin-3-yl}-N-methyl-3,5-bis-trifluoromethyl-benzamide] registered an EC50 of 2.26 µM. With `Cc1ccccc1-c1ccncc1N(C)C(=O)c1ccc(C(F)(F)F)c(F)c1` [Example 94, 3-Fluoro-N-methyl-N-(4-o-tolyl-pyridin-3-yl)-4-trifluoromethyl-benzamide] the figure was 2.16 µM; with `Cc1ccccc1-c1ccncc1N(C)C(=O)c1ccc(Cl)c(C(F)(F)F)c1` [Example 95, 4-Chloro-N-methyl-N-(4-o-tolyl-pyridin-3-yl)-3-trifluoromethyl-benzamide], 0.092 µM. Turning to `Cc1cc(C)cc(C(=O)N(C)c2cnccc2-c2ccccc2C)c1` [Example 96, 3,5,N-Trimethyl-N-(4-o-tolyl-pyridin-3-yl)-benzamide], a half-maximal effect (EC50) was put at 0.127 µM. The figure for `Cc1ccccc1-c1ccncc1N(C)C(=O)c1ccc(C(F)(F)F)c(Cl)c1` [Example 97, 3-Chloro-N-methyl-N-(4-o-tolyl-pyridin-3-yl)-4-trifluoromethyl-benzamide] is 0.721 µM. In the case of `COc1cccc(-c2ccncc2N(C)C(=O)c2cc(C(F)(F)F)cc(C(F)(F)F)c2)n1` [Example 98, N-(6-Methoxy-[2,4′]bipyridinyl-3′-yl)-N-methyl-3,5-bis-trifluoromethyl-benzamide], the midpoint of the response, the EC50, lay at 0.109 µM.

In turn, `COc1ccc(-c2ccncc2N(C)C(=O)c2cc(C(F)(F)F)cc(C(F)(F)F)c2)cn1` [Example 99, N-(6-Methoxy-[3,4′]bipyridinyl-3′-yl)-N-methyl-3,5-bis-trifluoromethyl-benzamide] returned an EC50 of 2.94 µM.

`Cc1ccccc1-c1ccncc1N(C)C(=O)c1cc(Cl)cc(OC(F)(F)F)c1` [Example 100, 3-Chloro-N-methyl-N-(4-o-tolyl-pyridin-3-yl)-5-trifluoromethoxy-benzamide] displayed an EC50 of 0.207 µM. With `Cc1ccccc1-c1ccncc1N(C)C(=O)c1ccc(C(F)(F)F)c(C(F)(F)F)c1` [Example 101, N-Methyl-N-(4-o-tolyl-pyridin-3-yl)-3,4-bis-trifluoromethyl-benzamide], the EC50 was determined as 0.298 µM. `CNC(=O)CN(C(=O)c1cc(C(F)(F)F)cc(C(F)(F)F)c1)c1cnccc1-c1ccccc1Cl` [Example 102, N-[4-(2-Chloro-phenyl)-pyridin-3-yl]-N-methylcarbamoylmethyl-3,5-bis-trifluoromethyl-benzamide] registered an EC50 of 0.144 µM. Turning to `Cc1ccccc1-c1ccncc1N(C)C(=O)c1cc(F)cc(Cl)c1` [Example 103, 3-Chloro-5-fluoro-N-methyl-N-(4-o-tolyl-pyridin-3-yl)-benzamide], the 50% effective concentration (EC50) worked out at 0.329 µM. For `Cc1ccccc1-c1ccncc1N(C)C(=O)c1cc(F)c(F)c(F)c1` [Example 104, 3,4,5-Trifluoro-N-methyl-N-(4-o-tolyl-pyridin-3-yl)-benzamide], the EC50 came to 1.64 µM.

`Cc1cccc(-c2ccncc2N(C)C(=O)c2cc(C(F)(F)F)cc(C(F)(F)F)c2)c1C` [Example 105, N-[4-(2,3-Dimethyl-phenyl)-pyridin-3-yl]-N-methyl-3,5-bis-trifluoromethyl-benzamide]: the EC50 was 0.485 µM. With `CN(C(=O)c1cc(C(F)(F)F)cc(C(F)(F)F)c1)c1cnccc1-c1cccnc1OCC(F)(F)F` [Example 106, N-Methyl-N-[2-(2,2,2-trifluoro-ethoxy)-[3,4′]bipyridinyl-3′-yl]-3,5-bis-trifluoromethyl-benzamide] the figure was 0.043 µM. For `Cc1cc(C(=O)N(C)c2cnccc2-c2ccccc2C)cc(C(F)(F)F)c1` [Example 108, 3,N-Dimethyl-N-(4-o-tolyl-pyridin-3-yl)-5-trifluoromethyl-benzamide], the EC50 worked out at 0.07 µM. The compound `Cc1ccccc1-c1ccncc1N(C)C(=O)c1cc(Cl)cc(C(F)(F)F)c1` [Example 109, 3-Chloro-N-methyl-N-(4-o-tolyl-pyridin-3-yl)-5-trifluoromethyl-benzamide] gave an EC50 of 0.022 µM. With `O=C(c1cc(C(F)(F)F)cc(C(F)(F)F)c1)N(CCF)c1cnccc1-c1ccccc1Cl` [Example 110, N-[4-(2-Chloro-phenyl)-pyridin-3-yl]-N-(2-fluoro-ethyl)-3,5-bis-trifluoromethyl-benzamide] the figure was 0.152 µM; with `CN(C(=O)c1cc(C(F)(F)F)cc(C(F)(F)F)c1)c1cnccc1-c1cccc(Cl)c1F` [Example 111, N-[4-(3-Chloro-2-fluoro-phenyl)-pyridin-3-yl]-N-methyl-3,5-bis-trifluoromethyl-benzamide], 0.256 µM; with `CS(=O)(=O)CCN(C(=O)c1cc(C(F)(F)F)cc(C(F)(F)F)c1)c1cnccc1-c1ccccc1Cl` [Example 112, N-[4-(2-Chloro-phenyl)-pyridin-3-yl]-N-(2-methanesulfonyl-ethyl)-3,5-bis-trifluoromethyl-benzamide], 0.237 µM. The figure for `Cc1ccccc1-c1cc(-c2ccc[nH]2)ncc1N(C)C(=O)c1cc(C(F)(F)F)cc(C(F)(F)F)c1` [Example 113, N-Methyl-N-[6-(1H-pyrrol-2-yl)-4-o-tolyl-pyridin-3-yl]-3,5-bis-trifluoromethyl-benzamide] is 2.01 µM; for `Cc1ccccc1-c1ccncc1N(C)C(=O)c1cc(C(F)(F)F)cc(S(C)(=O)=O)c1` [Example 114, 3-Methanesulfonyl-N-methyl-N-(4-o-tolyl-pyridin-3-yl)-5-trifluoromethyl-benzamide] it is 0.03 µM. Compound `O=C(c1cc(C(F)(F)F)cc(C(F)(F)F)c1)N(CCO)c1cnccc1-c1ccccc1Cl` [Example 115, N-[4-(2-Chloro-phenyl)-pyridin-3-yl]-N-(2-hydroxy-ethyl)-3,5-bis-trifluoromethyl-benzamide] gave an EC50 of 0.066 µM.

For the compound `O=C(c1cc(C(F)(F)F)cc(C(F)(F)F)c1)N(CC(F)F)c1cnccc1-c1ccccc1Cl` [Example 116, N-[4-(2-Chloro-phenyl)-pyridin-3-yl]-N-(2,2-difluoro-ethyl)-3,5-bis-trifluoromethyl-benzamide], the EC50 was 0.088 µM. Compound `NC(=O)CN(C(=O)c1cc(C(F)(F)F)cc(C(F)(F)F)c1)c1cnccc1-c1ccccc1Cl` [Example 117, N-Carbamoylmethyl-N-[4-(2-chloro-phenyl)-pyridin-3-yl]-3,5-bis-trifluoromethyl-benzamide] gave an EC50 of 0.052 µM. With `CN(C)C(=O)CN(C(=O)c1cc(C(F)(F)F)cc(C(F)(F)F)c1)c1cnccc1-c1ccccc1Cl` [Example 118, N-[4-(2-Chloro-phenyl)-pyridin-3-yl]-N-dimethylcarbamoylmethyl-3,5-bis-trifluoromethyl-benzamide] the figure was 2.47 µM; with `Cc1cc(C(=O)N(C)c2cnccc2-c2ccccc2C)cc(Cl)n1` [Example 119, 2-Chloro-6,N-dimethyl-N-(4-o-tolyl-pyridin-3-yl)-isonicotinamide], 0.61 µM; with `Cc1ccccc1-c1ccncc1N(C)C(=O)c1cc(Cl)nc(Cl)c1` [Example 120, 2,6-Dichloro-N-methyl-N-(4-o-tolyl-pyridin-3-yl)-isonicotinamide], 0.17 µM.

In turn, `Cc1cc(C)nc(C(=O)N(C)c2cnccc2-c2ccccc2C)c1` [Example 121, 4,6-Dimethyl-pyridine-2-carboxylic acid methyl-(4-o-tolyl-pyridin-3-yl)-amide] showed an EC50 of 1.92 µM. The compound `Cc1cc(Cl)cc(C(=O)N(C)c2cnccc2-c2ccccc2C)n1` [Example 122, 4-Chloro-6-methyl-pyridine-2-carboxylic acid methyl-(4-o-tolyl-pyridin-3-yl)-amide] returned an EC50 of 2.43 µM. With `Cc1ccccc1-c1ccncc1N(C)C(=O)c1cc(Cl)cc(Cl)n1` [Example 123, 4,6-Dichloro-pyridine-2-carboxylic acid methyl-(4-o-tolyl-pyridin-3-yl)-amide] the figure was 0.473 µM; with `O=C(c1cc(C(F)(F)F)cc(C(F)(F)F)c1)N(c1cnccc1-c1ccccc1Cl)C1CC1` [Example 124, N-[4-(2-Chloro-phenyl)-pyridin-3-yl]-N-cyclopropyl-3,5-bis-trifluoromethyl-benzamide], 1.98 µM; with `O=C(NCCN(C(=O)c1cc(C(F)(F)F)cc(C(F)(F)F)c1)c1cnccc1-c1ccccc1Cl)OCc1ccccc1` [Example 125, (2-{(3,5-Bis-trifluoromethyl-benzoyl)-[4-(2-chloro-phenyl)-pyridin-3-yl]-amino}-ethyl)-carbamic acid benzyl ester], 1.49 µM. The figure for `CC(C)N(C(=O)c1cc(C(F)(F)F)cc(C(F)(F)F)c1)c1cnccc1-c1ccccc1Cl` [Example 126, N-[4-(2-Chloro-phenyl)-pyridin-3-yl]-N-isopropyl-3,5-bis-trifluoromethyl-benzamide] is 0.62 µM.
